In patent publication US20220378811A1, “VENETOCLAX DOSING REGIMENS FOR USE IN TREATING MYELODYSPLASTIC SYNDROMES IN COMBINATION WITH AZACITIDINE” (ABBVIE INC., priority 2021, published 2022):

Test: Phase 1b study in previously untreated higher-risk MDS: dose administration, dose reductions and cycle delays in SE1 and SE2
Format: in vivo, human
Conditions: for # of reductions in Venetoclax duration: reductions due to hematologic toxicity
Experimental: Responses were evaluated using IWG 2006 criteria.
Subjects who initiate a cycle of treatment with neutropenia, absolute neutrophil count <1.5×10^9/L, or thrombocytopenia, platelets <75×10^9/L, may be especially sensitive to cytopenias due to abnormal hematopoiesis resulting from the underlying […]. […] However, subjects who initiate a cycle of treatment with absolute neutrophil count 1.5×10^9/L and platelets 75×10^9/L and have a previous response of complete remission, partial remission, or marrow complete remission may require dose reduction, if subsequent absolute neutrophil count nadir <0.500×10^9/L, or platelets nadir <50×10^9/L, if baseline was >100×10^9/L, or platelets <50% if baseline was ≤100×10^9/L.

Venetoclax dose delay by end of Cycle 2, Median # days (SE1, n = 22): 7.5 days | Venetoclax dose delay by end of Cycle 3, Median # days (SE1, n = 22): 14 days | Venetoclax dose delay by end of Cycle 4, Median # days (SE1, n = 22): 17 days | Venetoclax dose delay by end of Cycle 5, Median # days (SE1, n = 22): 14 days | Venetoclax dose delay by end of Cycle 6, Median # days (SE1, n = 22): 7 days | Venetoclax dose delay by end of Cycle 2, Median # days (SE2, n = 21): 8 days | Venetoclax dose delay by end of Cycle 3, Median # days (SE2, n = 21): 8.5 days | Venetoclax dose delay by end of Cycle 4, Median # days (SE2, n = 21): 9 days | Venetoclax dose delay by end of Cycle 5, Median # days (SE2, n = 21): 14 days | Venetoclax dose delay by end of Cycle 6, Median # days (SE2, n = 21): 14 days
Compound: CC1(C)CCC(CN2CCN(c3ccc(C(=O)NS(=O)(=O)c4ccc(NCC5CCOCC5)c([N+](=O)[O-])c4)c(Oc4cnc5[nH]ccc5c4)c3)CC2)=C(c2ccc(Cl)cc2)C1 [Venetoclax, 4-(4-{[2-(4-chlorophenyl)-4,4-dimethylcyclohex-1-en-1-yl]methyl}piperazin-1-yl)-N-({3nitro-4-[(tetrahydro-2H-pyran-4-ylmethyl)amino]phenyl}sulfonyl)-2-(1H-pyrrolo[2,3-b]pyridin5-yloxy)benzamide]
# of reductions in Venetoclax duration (SE1, n = 22): 3 (14) | # of reductions in Venetoclax duration (SE2, n = 21): 0
